Laboratory results reported in ChEMBL document CHEMBL1201862, “PubChem BioAssay data set” (2004).
Counter-ions that a name gives are not always drawn.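 Test compounds were applied to cells in 96-well plates for 48 hours at 5 doses. GI50 marks 50% less growth.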 Calls of active or inactive are those of the source. Rule as the data show it: active = GI50 up to about 1.1 µM and inactive = higher.

Assays:
Test in all cases: NCI anticancer screen, dose series, 48 h
[1] = test system: OVCAR-4
[2] = test system: IGROV-1
[3] = test system: NCI-H522
[4] = test system: HCT-15
[5] = test system: SK-MEL-28
[6] = test system: U-251
[7] = test system: ACHN
[8] = test system: M14
[9] = test system: 786-0
[10] = test system: SF-268
[11] = test system: SNB-19
[12] = test system: CCRF-CEM
[13] = test system: OVCAR-5
[14] = test system: SNB-75
[15] = test system: COLO 205
[16] = test system: HL-60
[17] = test system: NCI-H226

SMILES	GI50 [1]	GI50 [2]	GI50 [3]	GI50 [4]	GI50 [5]	GI50 [6]	GI50 [7]	GI50 [8]	GI50 [9]	GI50 [10]	GI50 [11]	GI50 [12]	GI50 [13]	GI50 [14]	GI50 [15]	GI50 [16]	GI50 [17]
CNC(C)Cc1ccccc1OC (configuration not stated) [METHOXYPHENAMINE HYDROCHLORIDE]	> 100 µM (inactive)	> 100 µM (inactive)	> 100 µM (inactive)	> 100 µM	> 100 µM (inactive)	> 100 µM (inactive)	> 100 µM (inactive)	> 100 µM (inactive)	> 100 µM (inactive)	> 100 µM (inactive)	> 100 µM (inactive)	> 100 µM (inactive)	> 100 µM (inactive)	> 100 µM (inactive)	> 100 µM (inactive)	> 100 µM (inactive)	> 100 µM (inactive)
C=C(C#N)C1OCC2OC(C)(C)OC21 (configuration not stated)	19.4 µM (inactive)	37.4 µM (inactive)		16.9 µM	21.1 µM (inactive)	32.7 µM (inactive)	20.7 µM (inactive)	15.7 µM (inactive)	20.2 µM (inactive)	23.8 µM (inactive)	> 100 µM (inactive)	16.5 µM (inactive)	19.8 µM (inactive)	20.1 µM (inactive)	15.4 µM (inactive)	18.2 µM (inactive)	
O=C/C1=C/C2=Cc3ccccc3C=C(/C=C(/C=O)C1)C2	46.7 µM (inactive)	> 100 µM (inactive)	> 100 µM (inactive)	31.4 µM	39.6 µM (inactive)	34.3 µM (inactive)	> 100 µM (inactive)	43.4 µM (inactive)	78.2 µM (inactive)	38.1 µM (inactive)	44.9 µM (inactive)	16.2 µM (inactive)	> 100 µM (inactive)	27.2 µM (inactive)	> 100 µM (inactive)	41.5 µM (inactive)	43.2 µM (inactive)
COC1=C(OC)CCC(/C(C#N)=C/c2ccc(OC)c(OC)c2)=C1	> 100 µM (inactive)	56.4 µM (inactive)	21.4 µM (inactive)	> 100 µM	> 100 µM (inactive)	34.5 µM (inactive)	> 100 µM (inactive)	> 100 µM (inactive)	67.5 µM (inactive)	37.2 µM (inactive)		> 100 µM (inactive)	> 100 µM (inactive)	16 µM (inactive)	95.3 µM (inactive)		> 100 µM (inactive)
CC(=O)OC1COC(n2ccc3cc(Br)c([N+](=O)[O-])cc32)C(OC(C)=O)C1OC(C)=O (configuration not stated)	> 10 µM (inactive)	30.3 µM (inactive)	> 10 µM (inactive)	30.9 µM	27.4 µM (inactive)	19.5 µM (inactive)	27.6 µM (inactive)	35.8 µM (inactive)	33.3 µM (inactive)	33.4 µM (inactive)	30 µM (inactive)	21.1 µM (inactive)		23.1 µM (inactive)	23.7 µM (inactive)		14.5 µM (inactive)
Cc1cc2c(=O)c(C)n[nH]c2c(C#N)c1C		> 100 µM (inactive)		> 100 µM	> 100 µM (inactive)	> 100 µM (inactive)	> 100 µM (inactive)		> 100 µM (inactive)	> 100 µM (inactive)	> 100 µM (inactive)	> 100 µM (inactive)	> 100 µM (inactive)	> 100 µM (inactive)	> 100 µM (inactive)	> 100 µM (inactive)	> 100 µM (inactive)
CO[C@@H]1C=C[C@@]23c4cc5c(cc4CN(C[C@@H]2O)[C@H]3C1)OCO5 [(+)-HAEMANTHAMINE]	3.85 µM (inactive)	23.1 µM (inactive)	12.1 µM (inactive)	17.4 µM	18.9 µM (inactive)	15 µM (inactive)	5.13 µM (inactive)	5.94 µM (inactive)	20.1 µM (inactive)	29.7 µM (inactive)	33.3 µM (inactive)	8.34 µM (inactive)	41.9 µM (inactive)	9.06 µM (inactive)		14 µM (inactive)	25.4 µM (inactive)
NCC1(N2CCOCC2)C2CCCC21CNc1ccccc1 (configuration not stated)	> 100 µM (inactive)	> 100 µM (inactive)	> 100 µM (inactive)		> 100 µM (inactive)	> 100 µM (inactive)	> 100 µM (inactive)	> 100 µM (inactive)	> 100 µM (inactive)	> 100 µM (inactive)	> 100 µM (inactive)	> 100 µM (inactive)	> 100 µM (inactive)	57.9 µM (inactive)	> 100 µM (inactive)	53.8 µM (inactive)	
CC1=NN(C(=O)CC(=O)Nc2ccccc2F)C(=O)C1/N=N/c1ccccc1[N+](=O)[O-] (configuration not stated)	70.6 µM (inactive)	> 100 µM (inactive)	51.8 µM (inactive)	> 100 µM	> 100 µM (inactive)	> 100 µM (inactive)		> 100 µM (inactive)	> 100 µM (inactive)	> 100 µM (inactive)	> 100 µM (inactive)	79.6 µM (inactive)	> 100 µM (inactive)	> 100 µM (inactive)	> 100 µM (inactive)		> 100 µM (inactive)
S=c1sc2sc(=S)sc2s1	> 100 µM (inactive)	> 100 µM (inactive)	33.1 µM (inactive)	26.1 µM		21 µM (inactive)	> 100 µM (inactive)	21.1 µM (inactive)	68.4 µM (inactive)	43.1 µM (inactive)	> 100 µM (inactive)	6.08 µM (inactive)	20.9 µM (inactive)	35.5 µM (inactive)	84.9 µM (inactive)	5.92 µM (inactive)	
CSC1=Nc2ccccc2N=C(c2ccc(Cl)cc2)C1	> 100 µM (inactive)	22.8 µM (inactive)	43.1 µM (inactive)	26.9 µM	42 µM (inactive)	33.4 µM (inactive)	36.6 µM (inactive)	36.1 µM (inactive)	30.3 µM (inactive)	42.3 µM (inactive)	> 100 µM (inactive)	27.9 µM (inactive)	27.8 µM (inactive)		59.6 µM (inactive)	35.3 µM (inactive)	> 100 µM (inactive)
Cn1cc(C(=O)c2ccccc2)c2ccccc2c1=O	> 100 µM (inactive)	> 100 µM (inactive)	34.4 µM (inactive)	> 100 µM	> 100 µM (inactive)		> 100 µM (inactive)	> 100 µM (inactive)	> 100 µM (inactive)	> 100 µM (inactive)		> 100 µM (inactive)		23.4 µM (inactive)	> 100 µM (inactive)	24.8 µM (inactive)	
CC(C)(C)C(=O)/C=C/c1cccc(Oc2ccccc2)c1		28.2 µM (inactive)	15.3 µM (inactive)	19.4 µM	16.4 µM (inactive)	11.3 µM (inactive)	15.2 µM (inactive)	18.6 µM (inactive)	16.7 µM (inactive)	> 10 µM (inactive)	15.5 µM (inactive)	4.08 µM (inactive)	18.4 µM (inactive)	12.4 µM (inactive)			18.2 µM (inactive)
